DBAASP
Values after ≈ are worked out from the molar mass of the structure shown. Values joined by “and” are separate entries in the source; they are usually repeats but may differ in a detail not shown here. Equal values may be shown once. One block for each compound: values may come before it.

How the values were obtained:
Test in all cases: ≥ marks a high value that may be exact or a test limit, other limits are often not marked, values filed in µg/mL are converted to µM
[1] = system: Acinetobacter baumannii
[2] = system: Bacillus subtilis CGMCC 1.3376
[3] = system: Bacteroides fragilis ATCC 25285
[4] = system: Bacteroides fragilis
[5] = system: Batrachochytrium dendrobatidis
[6] = system: Candida albicans ATCC 90028
[7] = system: Clostridium perfringens ATCC 10543
[8] = system: Clostridium septicum
[9] = system: Clostridium tertium ATCC 19465
[10] = system: Cutibacterium acnes ATCC 11828
[11] = system: Cutibacterium acnes
[12] = system: Enterobacter cloacae HNTCC 53001
[13] = system: Enterococcus faecalis ATCC 29212
[14] = system: Escherichia coli ATCC 25922
[15] = system: Escherichia coli CGMCC 1.8732
[16] = system: Fusobacterium nucleatum
[17] = system: Fusobacterium varium ATCC 27725
[18] = system: Klebsiella pneumoniae CGMCC 1.1736
[19] = system: Klebsiella pneumoniae KK3 9904
[20] = system: Peptoniphilus asaccharolyticus ATCC 29743
[21] = system: Peptostreptococcus anaerobius
[22] = system: Prevotella melaninogenica
[23] = system: Proteus mirabilis ATCC 25933
[24] = system: Pseudomonas aeruginosa ATCC 27853
[25] = system: Pseudomonas aeruginosa CGMCC 1.2421
[26] = system: Salmonella enterica subsp. enterica serovar Typhimurium LT2
[27] = system: Staphylococcus aureus CGMCC 1.8721
[28] = system: Staphylococcus aureus NCTC 8325
[29] = system: Staphylococcus aureus T27/9
[30] = system: Staphylococcus aureus T58/7
[31] = system: Staphylococcus aureus T7/5
[32] = system: Staphylococcus epidermidis CGMCC 1.4260
[33] = system: Staphylococcus epidermidis RP62A
[34] = system: Enterococcus faecalis
[35] = system: Escherichia coli W3110
[36] = system: Pseudomonas aeruginosa PAK
[37] = system: Staphylococcus aureus
[38] = system: Streptococcus mutans UA159
[39] = system: Streptococcus sanguinis NY101
[40] = system: Streptococcus sobrinus ATCC 33478
[41] = system: Pseudomonas aeruginosa MR3007
[42] = system: Staphylococcus aureus 930918-3
[43] = system: Staphylococcus aureus ATCC 33591
[44] = system: Acinetobacter baumannii ATCC 19606
[45] = system: Bordetella bronchiseptica CUN 11844-99
[46] = system: Brucella abortus 9.49 (per-)
[47] = system: Escherichia coli ATCC 23716
[48] = system: Pseudomonas aeruginosa CUN 4158-02
[49] = system: Staphylococcus aureus ATCC 43300
[50] = system: Staphylococcus aureus SA113
[51] = system: Yersinia pestis KIM pYV

MIC [1]: 12.5 µM (≈ 29.9 µg/mL)
MIC [2]: 3.13 µM (≈ 7.49 µg/mL)
MIC [3]: ≥ 50 µM
MIC [4]: ≥ 50 µM
MIC [5]: 25 µM (≈ 59.8 µg/mL)
MIC [6]: 19 µM and 12.5 µM
MIC [7]: ≥ 50 µM
MIC [8]: 12.5 µM (≈ 29.9 µg/mL)
MIC [9]: 12.5 µM (≈ 29.9 µg/mL)
MIC [10]: 12.5 µM (≈ 29.9 µg/mL)
MIC [11]: 25 µM (≈ 59.8 µg/mL)
MIC [12]: 12.5 µM (≈ 29.9 µg/mL)
MIC [13]: 6 µM (≈ 14.4 µg/mL)
MIC [14]: 20 µM and 12.5 µM
MIC [15]: 25 µM (≈ 59.8 µg/mL)
MIC [16]: ≥ 50 µM
MIC [17]: ≥ 50 µM
MIC [18]: 12.5 µM (≈ 29.9 µg/mL)
MIC [19]: ≥ 50 µM
MIC [20]: ≥ 50 µM
MIC [21]: 25 µM (≈ 59.8 µg/mL)
MIC [22]: 3 µM (≈ 7.18 µg/mL)
MIC [23]: ≥ 100 µM
MIC [24]: 25 µM (≈ 59.8 µg/mL)
MIC [25]: 12.5 µM (≈ 29.9 µg/mL)
MIC [26]: ≥ 50 µM
MIC [27]: 6.25 µM (≈ 14.9 µg/mL)
MIC [28]: 3.5 µM and 6 µM
MIC [29]: 5 µM (≈ 12 µg/mL)
MIC [30]: 20 µM (≈ 47.8 µg/mL)
MIC [31]: 2.5 µM (≈ 5.98 µg/mL)
MIC [32]: 3.13 µM (≈ 7.49 µg/mL)
MIC [33]: 3 µM (≈ 7.18 µg/mL)
SMILES: CC[C@H](C)[C@H](NC(=O)[C@H](C)N)C(=O)NCC(=O)N[C@@H](CO)C(=O)N[C@H](C(=O)N[C@@H](CC(C)C)C(=O)NCC(=O)N[C@@H](C)C(=O)N[C@@H](CC(C)C)C(=O)N[C@@H](C)C(=O)N[C@@H](CCCCN)C(=O)NCC(=O)N[C@@H](CC(C)C)C(=O)N1CCC[C@H]1C(=O)N[C@H](C(=O)N[C@@H](CC(C)C)C(=O)N[C@H](C(=O)N[C@@H](CO)C(=O)N[C@@H](Cc1c[nH]c2ccccc12)C(=O)N[C@H](C(=O)N[C@@H](CCCCN)C(=O)N[C@@H](CC(N)=O)C(=O)N[C@@H](CCCN=C(N)N)C(N)=O)[C@@H](C)CC)[C@@H](C)CC)[C@@H](C)O)[C@@H](C)CC [AIGSILGALAKGLPTLISWIKNR]

MIC [34]: ≥ 97.4 µM
MIC [35]: ≥ 48.7 µM
MIC [36]: ≥ 48.7 µM
MIC [37]: > 195 µM
MIC [38]: 12.5 µM (≈ 32 µg/mL)
MIC [39]: 24.3 µM (≈ 62.5 µg/mL)
MIC [40]: 24.3 µM (≈ 62.5 µg/mL)
SMILES: CC[C@H](C)[C@H](NC(=O)[C@H](Cc1ccccc1)NC(=O)[C@H](Cc1cnc[nH]1)NC(=O)[C@H](CCCCN)NC(=O)[C@@H](NC(=O)[C@H](Cc1ccccc1)NC(=O)[C@@H]1CCCN1C(=O)[C@H](Cc1ccc(O)cc1)NC(=O)[C@@H]1CCCN1C(=O)[C@H](Cc1ccccc1)NC(=O)[C@H](Cc1cnc[nH]1)NC(=O)[C@H](CC(C)C)NC(=O)[C@H](Cc1cnc[nH]1)NC(=O)[C@H](Cc1ccccc1)NC(=O)[C@H](Cc1cnc[nH]1)NC(=O)[C@@H](N)Cc1ccccc1)[C@@H](C)CC)C(=O)N[C@@H](Cc1cnc[nH]1)C(=O)N[C@@H](CCCN=C(N)N)C(=O)N[C@@H](Cc1ccccc1)C(N)=O [FHFHLHFPYPFIKHFIHRF]

MIC [41]: ≥ 143 µM
MIC [42]: ≥ 143 µM
MIC [43]: ≥ 143 µM
SMILES: CC[C@H](C)[C@H](NC(=O)[C@H](CCCCN)NC(=O)[C@H](CCCCN)NC(=O)[C@H](CC(C)C)NC(=O)[C@H](CCCCN)NC(=O)[C@H](CCC(=O)O)NC(=O)[C@H](CCCCN)NC(=O)[C@@H](NC(=O)[C@@H](N)CCCCN)[C@@H](C)CC)C(=O)NCC(=O)N[C@@H](CCC(N)=O)C(=O)N[C@@H](CCCCN)C(=O)N[C@H](C(=O)N[C@@H](CCC(N)=O)C(=O)NCC(=O)O)[C@@H](C)CC [KIKEKLKKIGQKIQG]

SMILES: CC[C@H](C)[C@H](NC(=O)[C@H](CCCCN)NC(=O)[C@H](CCCCN)NC(=O)[C@H](CO)NC(=O)[C@@H](NC(=O)CNC(=O)[C@H](CCCN=C(N)N)NC(=O)[C@H](CC(C)C)NC(=O)[C@@H](NC(=O)[C@@H](N)CCCCN)[C@@H](C)CC)C(C)C)C(=O)N[C@@H](CCSC)C(=O)N[C@@H](CCCN=C(N)N)C(=O)N[C@@H](CCCN=C(N)N)C(=O)N[C@H](C(=O)N[C@@H](CO)C(=O)N[C@@H](CCCCN)C(=O)N[C@@H](CC(=O)O)C(=O)N[C@H](C(=O)N[C@@H](CC(C)C)C(=O)N[C@H](C(=O)NCC(=O)N[C@@H](CCCCN)C(=O)N[C@@H](CCCCN)C(N)=O)[C@@H](C)O)[C@@H](C)CC)[C@@H](C)CC [KILRGVSKKIMRRISKDILTGKK]
MIC [44]: 3 µM (≈ 8 µg/mL)
MIC [45]: 0.375 µM (≈ 1 µg/mL)
MIC [46]: 1.5 µM (≈ 4 µg/mL)
MIC [47]: 5.99 µM and 4.68 µM
MIC [14]: 5.99 µM (≈ 16 µg/mL)
MIC [48]: 5.99 µM (≈ 16 µg/mL)
MIC [49]: > 95.9 µM
MIC [50]: ≥ 95.9 µM
MIC [37]: 24 µM and 48 µM
MIC [51]: ≥ 48 µM
